Patent US7763578B2, “Preparation of polymeric foams using hydrofluoroether nucleating agents” (3M Innovative Properties Company, priority 2004, dated 2010)

Test: Acute toxicity (acute lethal concentration in air)
Assay type: in vivo
Settings: 10,000 ppm is its saturated concentration in air at room temperature
From the text: In addition to providing useful performance as nucleating agents, the segregated ethers useful herein can offer additional important benefits in safety of use and in environmental compatibility (e.g., zero ozone depletion potential and low atmospheric lifetime). For example, 3M NOVEC Brand HFE-7500 has low acute toxicity (its acute lethal concentration is greater than 10,000 ppm which is its saturated concentration in air at room temperature). […] Further, polymeric foams produced in accordance with the invention have excellent thermal insulation properties.

For `CCOC(F)(C(F)(F)C(F)(F)C(F)(F)F)C(F)(C(F)(F)F)C(F)(F)F` (stereo not shown) [3M NOVEC Brand HFE-7500, C3F7CF(OC2H5)CF(CF3)2], the acute lethal concentration was “greater than 10,000 ppm”.
